Molecular target: Sigma non-opioid intracellular receptor 1 (Cavia porcellus, UniProt Q60492)
Test: Displacement of [3H](+)-pentazocine from Sigma1 receptor in Dunkin Hartley guinea pig brain membrane after 120 mins by liquid scintillation counting analysis

Sigma non-opioid intracellular receptor 1, sequence (Q60492 whole entry): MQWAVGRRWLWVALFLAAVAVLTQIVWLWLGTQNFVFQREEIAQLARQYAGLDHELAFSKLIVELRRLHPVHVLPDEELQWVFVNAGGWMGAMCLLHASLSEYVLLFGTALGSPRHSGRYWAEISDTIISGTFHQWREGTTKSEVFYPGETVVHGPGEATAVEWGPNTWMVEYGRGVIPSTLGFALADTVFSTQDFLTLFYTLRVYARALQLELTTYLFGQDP

SMILES	Ki [nM]
COc1ccc(C(=O)N2CC(=O)N(C3CCCCC3)C(=O)C23CCN(Cc2ccccc2)CC3)cc1	5.9
COc1ccc(C(=O)N2CC(=O)N(C3CCCCC3)C(=O)C23CCCC3)cc1	429
COc1ccc(C(=O)N2CC(=O)N(C3CCCCC3)C(=O)C23CCC(C(C)(C)C)CC3)cc1 (stereo unspecified)	9360
Cc1ccc(C(=O)N2CC(=O)N(C3CCCCC3)C(=O)C23CCCCC3)cc1	399
COc1ccc(C(=O)N2CC(=O)N(C3CCCCC3)C(=O)C23CCCCC3)c(OC)c1	968
Cc1ccc(C(=O)N2CC(=O)N(C3CCCCC3)C(=O)C23CCN(Cc2ccccc2)CC3)cc1	11.1
COc1ccc(C(=O)N2CC(=O)N(C3CCCCC3)C(=O)C23CCCCC3)cc1	1370
CC(C)(C)C1CCC2(CC1)C(=O)N(C1CCCCC1)C(=O)CN2C(=O)c1ccccc1 (stereo unspecified)	7900
Cc1ccc(C(=O)N2CC(=O)N(C3CCCCC3)C(=O)C23CCCC3)cc1	189
O=C1CN(C(=O)c2ccccc2)C2(CCCC2)C(=O)N1C1CCCCC1	79.8
O=C1CN(C(=O)c2ccccc2)C2(CCN(Cc3ccccc3)CC2)C(=O)N1C1CCCCC1	7.2

Molecular target: not listed separately
Test: Displacement of [3H]-DTG from Sigma2 receptor in Sprague-Dawley rat liver membrane after 150 mins by liquid scintillation counting analysis in presence of sigma1 blocker (+)-pentazocine
Format: cell membranes

SMILES	Ki [nM]
COc1ccc(C(=O)N2CC(=O)N(C3CCCCC3)C(=O)C23CCN(Cc2ccccc2)CC3)cc1	563
O=C(CCCN1CCC(O)(c2ccc(Cl)cc2)CC1)c1ccc(F)cc1 [HALOPERIDOL]	54.5
Cc1ccccc1NC(=N)Nc1ccccc1C [DITOLYLGUANIDINE]	59.1
COc1ccc(C(=O)N2CC(=O)N(C3CCCCC3)C(=O)C23CCCC3)cc1	98
COc1ccc(C(=O)N2CC(=O)N(C3CCCCC3)C(=O)C23CCC(C(C)(C)C)CC3)cc1 (stereo unspecified)	> 10000
Cc1ccc(C(=O)N2CC(=O)N(C3CCCCC3)C(=O)C23CCCCC3)cc1	2190
COc1ccc(C(=O)N2CC(=O)N(C3CCCCC3)C(=O)C23CCCCC3)c(OC)c1	3170
Cc1ccc(C(=O)N2CC(=O)N(C3CCCCC3)C(=O)C23CCN(Cc2ccccc2)CC3)cc1	134
COc1ccc(C(=O)N2CC(=O)N(C3CCCCC3)C(=O)C23CCCCC3)cc1	5380
CC(C)(C)C1CCC2(CC1)C(=O)N(C1CCCCC1)C(=O)CN2C(=O)c1ccccc1 (stereo unspecified)	> 10000
Cc1ccc(C(=O)N2CC(=O)N(C3CCCCC3)C(=O)C23CCCC3)cc1	134
O=C1CN(C(=O)c2ccccc2)C2(CCCC2)C(=O)N1C1CCCCC1	118
O=C1CN(C(=O)c2ccccc2)C2(CCN(Cc3ccccc3)CC2)C(=O)N1C1CCCCC1	248

Molecular target: not listed separately
Test: Displacement of [3H]-DTG from Sigma2 receptor in Sprague-Dawley rat liver membrane after 150 mins by liquid scintillation counting analysis in presence of sigma1 blocker AC915
Format: cell membranes

SMILES	Ki [nM]
CC(C)=CCN1CC[C@]2(C)c3cc(O)ccc3C[C@H]1[C@H]2C [(+)-PENTAZOCINE]	1820

Molecular target: not listed separately
Test: Displacement of [3H]-DTG from Sigma2 receptor in rat brain by liquid scintillation counting analysis in presence of sigma1 blocker (+)-pentazocine
Format: tissue-based

SMILES	Ki [µM]
c1ccc(CN2CCC3(CC2)N=Nc2ccccc2N3)cc1	4.22
